In EP0091090A2, “Bipyridine substituted imidazolidene copper complex and its use in food-producing animals, and bipyridine, 2,2'-(2-imidazolidinylidene) di-copper complex and use in animals” (INTERNATIONAL MINERALS & CHEMICAL CORPORATION, priority 1982, dated 1983):

System: rumen fluid batch culture
Assay: Rumen fluid batch culture test: volatile fatty acid, gas (CH4 + H2), protein and amino acid accumulation (Example 2)
Type: cell-based, steers
Design: HFo (formate) / HAc (acetate) / HPr (propionate) / HiBu (isobutyrate) / HBu (butyrate) / HiVal (isovalerate) / Total / Caloric Value of H2 / Caloric Value of HFo / Caloric Value of HAc / Caloric Value of HPr / Caloric Value of HiBu / Caloric Value of HBu / Caloric Value of HiVal / Caloric Value of CH3: unit not given here
Procedure: The above Formula IV composition was tested to determine its effectiveness as a feed additive for ruminants. The initial tests were in rumen fluid batch culture systems to determine the effect of the compound on volatile fatty acid/methane ratios (VFA/CH4). […] Test Procedure: A 50/50 mixture of ground corn and ground alfalfa was used as the substrate for the subject rumen fluid batch culture test. The compound (Formula IV ) was present in the rumen fluid in three separate test samples at 8.33, 25 and 75 ppm, respectively. On day 1, rumen fluid was obtained from mature fistulated steers on 50/50 concentrate/roughage diets. The rumen fluid (RF) was strained through three layers of gauze cloth and equilibrated with C02 gas. Wheaton serum vials (125 ml) were prepared ahead with 20 ml continuous batch buffer and 100 mg 50/50 ground corn/ground alfalfa. Controls and compounds (dissolved in acetone) were set up according to desired levels. The vials were kept under C02 gas until 20 ml of the strained RF was added. The vials were sealed and incubated at 39°C for 24 hours in a hot water bath. On successive days, gas samples (0.1 ml) were drawn for gas chromatography analysis before transferring 20 ml of the batch culture to another vial containing 20 ml of buffer, 100 mg substrate, and the corresponding compound. The remaining 20 ml was inoculated with 2 ml 6N HC1 and centrifuged at 15,000 rpm for 15 minutes. Ether extracts were prepared for volatile fatty acid (VFA) analysis. Some minor adjustments were made in the termperatures on the Hewlett-Packard 5750 Gas-Liquid Chromatograph used for VFA analysis when the glass column used was changed from 1/4 inch diameter to 1/8 inch diameter. Injection Port = 220°C Column Oven = 170°C Flame Detector = 250°C Only 4 minutes was needed to record the sample instead of the previous 7 minutes.

[1] = 25 μg/ml, total produced on Day 10

Substance: 2,2'-(4,5-diphenyl-2H-imidazol-2-ylidene)bispyridine with CuCl2(1/1) [Formula IV Compound]
- CH4 (25 µg/ml, day 8): 6 µ Moles
- H2 (25 µg/ml, day 8): 17 µ Moles
- HAc (acetate) (25 µg/ml, day 8): 20.38
- HBu (butyrate) (25 µg/ml, day 8): 8.39
- HFo (formate) (25 µg/ml, day 8): 2.20
- HPr (propionate) (25 µg/ml, day 8): 14.71
- HiBu (isobutyrate) (25 µg/ml, day 8): 2.73
- HiVal (isovalerate) (25 µg/ml, day 8): 0
- Protein (25 µg/ml, day 8): 0 mg/mL
- Total (25 µg/ml, day 8): 48.40
- AA (25 µg/ml, day 9): 0.20 µ Moles/ml
- CH4 (25 µg/ml, day 9): 28 µ Moles
- H2 (25 µg/ml, day 9): 22 µ Moles
- HAc (acetate) (25 µg/ml, day 9): 20.91
- HBu (butyrate) (25 µg/ml, day 9): 5.82
- HFo (formate) (25 µg/ml, day 9): 1.78
- HPr (propionate) (25 µg/ml, day 9): 14.96
- HiBu (isobutyrate) (25 µg/ml, day 9): 1.21
- HiVal (isovalerate) (25 µg/ml, day 9): 0
- Protein (25 µg/ml, day 9): 0.03 mg/mL
- Total (25 µg/ml, day 9): 44.66
- AA (25 µg/ml, day 10): 0.30 µ Moles/ml
- CH4 (25 µg/ml, day 10): 55 µ Moles
- H2 (25 µg/ml, day 10): 8 µ Moles
- HAc (acetate) (25 µg/ml, day 10): 21.76
- HBu (butyrate) (25 µg/ml, day 10): 2.06
- HFo (formate) (25 µg/ml, day 10): 1.00
- HPr (propionate) (25 µg/ml, day 10): 13.79
- HiBu (isobutyrate) (25 µg/ml, day 10): 0.01
- HiVal (isovalerate) (25 µg/ml, day 10): 0
- Protein (25 µg/ml, day 10): 0 mg/mL
- Total (25 µg/ml, day 10): 38.62
- Caloric Value of CH3 (25 µg/ml, produced on Day 10): 11.59
- Caloric Value of H2 (25 µg/ml, produced on Day 10): 0.55
- Caloric Value of HAc (25 µg/ml, produced on Day 10): 94.73
- Caloric Value of HBu (25 µg/ml, produced on Day 10): 0
- Caloric Value of HFo (25 µg/ml, produced on Day 10): 0.28
- Caloric Value of HPr (25 µg/ml, produced on Day 10): 92.13
- Caloric Value of HiBu (25 µg/ml, produced on Day 10): 0
- Caloric Value of HiVal (25 µg/ml, produced on Day 10): 0
- Caloric Value, Total (VFA's) (25 µg/ml, produced on Day 10): 187.14
- Total Cal in VFA & Gas (25 µg/ml, produced on Day 10): 199.28 cal
- CH4 produced on Day 10 [1]: 55
- H2 produced on Day 10 [1]: 8
- HAc (acetate) produced on Day 10 [1]: 452.4
- HBu (butyrate) produced on Day 10 [1]: 0
- HFo (formate) produced on Day 10 [1]: 4.40
- HPr (propionate) produced on Day 10 [1]: 252.4
- HiBu (isobutyrate) produced on Day 10 [1]: 0
- HiVal (isovalerate) produced on Day 10 [1]: 0
- Total VFA's produced on Day 10 [1]: 709.2
- Gross Cal Remaining in Feed (75 µg/ml, Day 10, initial feed gross energy 800 kcal): 350.70 cal
- methane (75 µg/ml, by day 10): inhibited completely
- AA (75 µg/ml, day 2): 0.18 µ Moles/ml
- CH4 (75 µg/ml, day 2): 155 µ Moles
- H2 (75 µg/ml, day 2): 0 µ Moles
- HAc (acetate) (75 µg/ml, day 2): 33.48
- HBu (butyrate) (75 µg/ml, day 2): 8.18
- HFo (formate) (75 µg/ml, day 2): 0.95
- HPr (propionate) (75 µg/ml, day 2): 11.10
- HiBu (isobutyrate) (75 µg/ml, day 2): 0.95
- HiVal (isovalerate) (75 µg/ml, day 2): 0.69
- Protein (75 µg/ml, day 2): 0 mg/mL
- Total (75 µg/ml, day 2): 55.34
- AA (75 µg/ml, day 3): 0.27 µ Moles/ml
- CH4 (75 µg/ml, day 3): 71 µ Moles
- H2 (75 µg/ml, day 3): 0 µ Moles
- HAc (acetate) (75 µg/ml, day 3): 28.66
- HBu (butyrate) (75 µg/ml, day 3): 15.10
- HFo (formate) (75 µg/ml, day 3): 0.80
- HPr (propionate) (75 µg/ml, day 3): 14.81
- HiBu (isobutyrate) (75 µg/ml, day 3): 3.81
- HiVal (isovalerate) (75 µg/ml, day 3): 0.44
- Protein (75 µg/ml, day 3): 0.04 mg/mL
- Total (75 µg/ml, day 3): 63.61
- CH4 (75 µg/ml, day 4): 74 µ Moles
- H2 (75 µg/ml, day 4): 0 µ Moles
- HAc (acetate) (75 µg/ml, day 4): 27.47
- HBu (butyrate) (75 µg/ml, day 4): 5.26
- HFo (formate) (75 µg/ml, day 4): 1.29
- HPr (propionate) (75 µg/ml, day 4): 18.71
- HiBu (isobutyrate) (75 µg/ml, day 4): 0.95
- HiVal (isovalerate) (75 µg/ml, day 4): 0.25
- Total (75 µg/ml, day 4): 53.92
- CH4 (75 µg/ml, day 5): 74 µ Moles
- H2 (75 µg/ml, day 5): 0 µ Moles
- HAc (acetate) (75 µg/ml, day 5): 23.84
- HBu (butyrate) (75 µg/ml, day 5): 4.59
- HFo (formate) (75 µg/ml, day 5): 0.61
